“Also recorded” adds a separate entry of the source. Where a SMILES comes first, the peptide text is derived from it. Where no end group is shown, it is not given here. [ ]: non-standard residue; d: D form.
Molecular target: Leu3a binding to CD4
Assay: Leu3a competitive immunoassay (inhibition of biotinylated Leu3a binding to immobilized CD4 membrane fraction)
Design: species or system human
Conditions: for IC50 μg/well: D-amino acid-substituted CD4 (49-63); for IC50 μg/well / IC50 /µg/well: peptide amount per well inhibiting Leu3a binding by 50%; for IC50 /µg/well: CD4 fragment peptides, membrane fraction of MOLT4 or CCRF-CEM cells as CD4 source, unit of the source corrected; for inhibition of Leu3a binding to CD4 (in words): CD4 from MOLT4 cells
Protocol: Then, aliquots of solutions containing labeled Leu3a and the peptide to be tested are added. […] After a suitable period of incubation, the solid matrix is washed to remove unbound components and the labeled Leu3a bound is quantitated. In general, any of a number of conventionally labeled Leu3a preparations may be used, including radioactively labeled or enzyme-labeled Leu3a. However, a biotinylated Leu3a used in conjunction with an appropriate secondary reagent such as a complex of avidin-biotin-horseradish peroxidase is preferred. This secondary reagent specifically binds to the biotinylated Leu3a. A chromogenic substrate is added to the complex, enabling one to measure the amount of Leu3a bound as a function of absorbance.
Two million cells, suspended in 2 ml of 40 mM HEPES (4-(2-hydroxyethyl)-1-piperazine ethanesulfonic acid) buffer (pH 7.4) containing 1 mM EGTA (ethylene-bis-(oxyethylene-nitrilo)-tetraacetic acid), 1 mM PMSF (phenylmethylsulfonylfluoride), 1,000 KIU/ml aprotinin and 150 mM sodium chloride, were lysed by two (2) successive 15 second cycles of ultrasonication and centrifuged at 100×g for five (5) minutes. The supernatant was collected and centrifuged at 15,000×g for ten minutes. The precipitate was resuspended in 1 ml of 50 mM sodium bicarbonate buffer, ultrasonicated by three (3) successive 15 second cycles, and mixed with 1 ml of 50 mM sodium bicarbonate buffer to obtain the cellular membrane suspension. Then, 50 μl of the membrane suspension was added to each well of a 96 well microtiter plate. After overnight incubation at 4° C., the buffer was removed and the adsorbed membrane fraction was fixed by addition of 50 μl of 10 mM PBS (phosphate buffered saline) containing 0.2% glutaraldehyde. After three (3) minutes at room temperature, the glutaraldehyde buffer was removed and the plates were washed five times with PBS. Then, 350 μl of PBS containing 2% bovine serum albumin (BSA) was added to each well to block subsequently added proteins from binding non-specifically to the plastic. After blocking at room temperature for one (1) hour, the blocking buffer was removed and the plates were washed five times with 0.2% BSA solution in PBS (BPBS).
The following dilutions of each peptide in BPBS--were prepared: 10 μg/ml; 20 μg/ml; 40 μg/ml; 100 μg/ml; 200 μg/ml, 400 μg/ml; 1 mg/ml and 2 mg/ml. A 50 μl aliquot of each dilution of a selected peptide was added to a well of a microtiter plate, together with 25 μl of a solution containing 600 ng/ml biotin-conjugated Leu3a (Becton Dickinson Immunocytometry Systems) in BPBS so that each well contained either 0.5, 1, 2, 5, 10, 20, 50 or 100 μg of peptide in a total volume of 75 μl. After overnight incubation at 4° C., the reaction mixture was removed and the plates were washed eight times with BPBS containing 0.05% Tween 20.
A solution containing a complex of avidin DH (reagent A) and biotinylated horseradish peroxidase H (reagent B) was prepared by adding 90 μl of reagent A and 90 μl of reagent B (ABC Kit:Vector Laboratories, Inc.) to 5 ml of BPBS containing 0.05% Tween 20.
Then, 50 μl of the enzyme complex solution was added to each well, and the plates were incubated at room temperature for four (4) hours. The reaction buffer was removed and the plates were washed eight times with 20 mM imidazole buffered saline containing 0.02% Tween 20. Equal volumes of substrate solution A (ABTS; 2,2'-azino-di[3-ethyl-benzthiazoline sulfonate]) and substrate solution B (hydrogen peroxide) (Hybri-Clonal™ EIA Screening Kit: Kirkegaard & Perry Laboratories, Inc.) were mixed, and 100 μl of the substrate solution mixture was added to each well. After incubation at room temperature for one (1) hour, absorbance at 405 nm was measured by microplate reader model MPR-A4 (Tosoh Co., Ltd.).
Leu3a binding, as measured by absorbance, was calculated and plotted against peptide concentration to obtain a competitive inhibition curve.

Row | IC50 μg/well | IC50 /µg/well | inhibition of Leu3a binding to CD4 (in words) | Compound
1 | 36 μg/well | – | – | CC(C)C[C@H](NC(=O)[C@H](CO)NC(=O)[C@H](CCCNC(=N)N)NC(=O)[C@H](CCCNC(=N)N)NC(=O)[C@H](CO)NC(=O)[C@H](CC(=O)O)NC(=O)[C@@H](C)NC(=O)[C@H](CCCNC(=N)N)NC(=O)[C@H](CC(=O)O)NC(=O)[C@H](CC(N)=O)NC(=O)[C@H](CC(C)C)NC(=O)[C@@H](CCCCN)NC(=O)[C@@H](N)CO)C(=O)N[C@@H](Cc1c[nH]c2ccccc12)C(=O)N[C@@H](CC(=O)O)C(=O)O [[D-Lys^50,D-Ala^55]-CD4(49-63)] (H-S[dK]LNDR[dA]DSRRSLWD-OH)
2 | 23 μg/well | – | – | CC(C)C[C@H](NC(=O)[C@H](CCCCN)NC(=O)[C@@H](N)CO)C(=O)N[C@@H](CC(N)=O)C(=O)N[C@@H](CC(=O)O)C(=O)N[C@@H](CCCNC(=N)N)C(=O)N[C@H](C)C(=O)N[C@@H](CC(=O)O)C(=O)N[C@@H](CO)C(=O)N[C@@H](CCCNC(=N)N)C(=O)N[C@H](CCCNC(=N)N)C(=O)N[C@@H](CO)C(=O)N[C@@H](CC(C)C)C(=O)N[C@@H](Cc1c[nH]c2ccccc12)C(=O)N[C@@H](CC(=O)O)C(=O)O [[D-Ala^55,D-Arg^59]-CD4(49-63)] (H-SKLNDR[dA]DSR[dR]SLWD-OH)
3 | – | > 500 µg/well | very weak inhibiting activity | KLNDRADSRRSLWD [CD4 (50-63)]
4 | 10 μg/well | – | – | CC(C)C[C@H](NC(=O)[C@H](CO)NC(=O)[C@H](CCCNC(=N)N)NC(=O)[C@H](CCCNC(=N)N)NC(=O)[C@@H](CO)NC(=O)[C@H](CC(=O)O)NC(=O)[C@@H](C)NC(=O)[C@H](CCCNC(=N)N)NC(=O)[C@H](CC(=O)O)NC(=O)[C@H](CC(N)=O)NC(=O)[C@H](CC(C)C)NC(=O)[C@H](CCCCN)NC(=O)[C@@H](N)CO)C(=O)N[C@@H](Cc1c[nH]c2ccccc12)C(=O)N[C@@H](CC(=O)O)C(=O)O [[D-Ala^55,D-Ser^57]-CD4(49-63)] (H-SKLNDR[dA]D[dS]RRSLWD-OH)
5 | 60 μg/well | – | – | CC(C)C[C@H](NC(=O)[C@H](CO)NC(=O)[C@H](CCCNC(=N)N)NC(=O)[C@H](CCCNC(=N)N)NC(=O)[C@H](CO)NC(=O)[C@H](CC(=O)O)NC(=O)[C@@H](C)NC(=O)[C@H](CCCNC(=N)N)NC(=O)[C@H](CC(=O)O)NC(=O)[C@@H](CC(N)=O)NC(=O)[C@H](CC(C)C)NC(=O)[C@H](CCCCN)NC(=O)[C@@H](N)CO)C(=O)N[C@@H](Cc1c[nH]c2ccccc12)C(=O)N[C@@H](CC(=O)O)C(=O)O [[D-Asn^52,D-Ala^55]-CD4(49-63)] (H-SKL[dN]DR[dA]DSRRSLWD-OH)

Second part, the compound before the results:

Row | Compound | IC50 μg/well | IC50 /µg/well | inhibition of Leu3a binding to CD4 (in words)
6 | CC(C)C[C@H](NC(=O)[C@H](CO)NC(=O)[C@H](CCCNC(=N)N)NC(=O)[C@H](CCCNC(=N)N)NC(=O)[C@H](CO)NC(=O)[C@H](CC(=O)O)NC(=O)[C@@H](C)NC(=O)[C@H](CCCNC(=N)N)NC(=O)[C@H](CC(=O)O)NC(=O)[C@H](CC(N)=O)NC(=O)[C@H](CC(C)C)NC(=O)[C@H](CCCCN)NC(=O)[C@@H](N)CO)C(=O)N[C@@H](Cc1c[nH]c2ccccc12)C(=O)N[C@@H](CC(=O)O)C(=O)O [[D-Ala^55]-CD4(49-63)] (H-SKLNDR[dA]DSRRSLWD-OH) | 32 μg/well | – | –
7 | SKLNDRADSRRSLW [CD4 (49-62)] | – | > 500 µg/well | very weak inhibiting activity
8 | CC(C)C[C@H](NC(=O)[C@H](CO)NC(=O)[C@H](CCCNC(=N)N)NC(=O)[C@H](CCCNC(=N)N)NC(=O)[C@H](CO)NC(=O)[C@@H](CC(=O)O)NC(=O)[C@H](C)NC(=O)[C@H](CCCNC(=N)N)NC(=O)[C@H](CC(=O)O)NC(=O)[C@H](CC(N)=O)NC(=O)[C@H](CC(C)C)NC(=O)[C@H](CCCCN)NC(=O)[C@@H](N)CO)C(=O)N[C@@H](Cc1c[nH]c2ccccc12)C(=O)N[C@@H](CC(=O)O)C(=O)O [[D-Asp^56]-CD4(49-63)] (H-SKLNDRA[dD]SRRSLWD-OH) | 56 μg/well | – | –
9 | CC(C)C[C@H](NC(=O)[C@H](CO)NC(=O)[C@H](CCCNC(=N)N)NC(=O)[C@@H](CCCNC(=N)N)NC(=O)[C@H](CO)NC(=O)[C@H](CC(=O)O)NC(=O)[C@@H](C)NC(=O)[C@H](CCCNC(=N)N)NC(=O)[C@H](CC(=O)O)NC(=O)[C@H](CC(N)=O)NC(=O)[C@H](CC(C)C)NC(=O)[C@H](CCCCN)NC(=O)[C@@H](N)CO)C(=O)N[C@@H](Cc1c[nH]c2ccccc12)C(=O)N[C@@H](CC(=O)O)C(=O)O [[D-Ala^55,D-Arg^58]-CD4(49-63)] (H-SKLNDR[dA]DS[dR]RSLWD-OH) | 36 μg/well | – | –
10 | SKLNDRADSRRSLWD [CD4 (49-63), ser-lys-leu-asn-asp-arg-ala-asp-ser-arg-arg-ser-leu-trp-asp] | – | 10 µg/well | strongly inhibited; also recorded: exceptionally strong inhibitory activity
11 | KNSNQIKILGNQGSFLTKG [CD4 (29-47)] | – | 500 µg/well | –
12 | CC(C)C[C@H](NC(=O)[C@@H](CCCCN)NC(=O)[C@@H](N)CO)C(=O)N[C@@H](CC(N)=O)C(=O)N[C@@H](CC(=O)O)C(=O)N[C@@H](CCCNC(=N)N)C(=O)N[C@H](C)C(=O)N[C@@H](CC(=O)O)C(=O)N[C@@H](CO)C(=O)N[C@@H](CCCNC(=N)N)C(=O)N[C@@H](CCCNC(=N)N)C(=O)N[C@@H](CO)C(=O)N[C@H](CC(C)C)C(=O)N[C@@H](Cc1c[nH]c2ccccc12)C(=O)N[C@@H](CC(=O)O)C(=O)O [[D-Lys^50,D-Ala^55,D-Leu^61]-CD4(49-63)] (H-S[dK]LNDR[dA]DSRRS[dL]WD-OH) | 22 μg/well | – | –
13 | CC(C)C[C@H](NC(=O)[C@H](CO)NC(=O)[C@@H](CCCNC(=N)N)NC(=O)[C@H](CCCNC(=N)N)NC(=O)[C@H](CO)NC(=O)[C@H](CC(=O)O)NC(=O)[C@@H](C)NC(=O)[C@H](CCCNC(=N)N)NC(=O)[C@H](CC(=O)O)NC(=O)[C@H](CC(N)=O)NC(=O)[C@H](CC(C)C)NC(=O)[C@@H](CCCCN)NC(=O)[C@@H](N)CO)C(=O)N[C@@H](Cc1c[nH]c2ccccc12)C(=O)N[C@@H](CC(=O)O)C(=O)O [[D-Lys^50,D-Ala^55,D-Arg^59]-CD4(49-63)] (H-S[dK]LNDR[dA]DSR[dR]SLWD-OH) | 25 μg/well | – | exhibited inhibitory activity
